# Results reported in EPA's ToxRefDB 2.
# Tests used:
# rat [1] = details: Subchronic oral toxicity in rodents, sprague dawley, Feed, dose end: 90 day, group: cholinesterase, cholinesterase / cholinesterase / cholinesterase / brain cholinesterase (che)
# rat [2] = details: Combined chronic toxicity/carcinogenicity, sprague dawley, Oral, Feed, dose end: 28 month
# dog = details: Chronic toxicity, beagle, Oral, Feed, dose end: 52 week
# rat [3] = details: Prenatal developmental toxicity study, sprague dawley, Oral, Gavage/Intubation, dose end: 15 GD
# rat [4] = details: Subchronic oral toxicity in rodents, fischer, Feed, dose end: 13 week, group: systemic
# mouse [5] = details: Subchronic oral toxicity in rodents, b6c3f1, Feed, dose end: 13 week, group: systemic, systemic / in life observation / body weight / body weight + systemic / in life observation / body weight / body weight gain
# rat [6] = details: Developmental neurotoxicity study, sprague dawley, Oral, Gavage/Intubation, dose end: 90 PND, group: cannot be grouped
# rat [7] = details: Combined chronic toxicity/carcinogenicity, fischer, Oral, Feed, dose end: 2 year, group: systemic
# rat [8] = details: Developmental neurotoxicity study; sprague dawley; Oral; Gavage/Intubation; dose end: 57 PND; group: cannot be grouped; reproductive / offspring survival early / birth index / birth index + systemic / in life observation / body weight / body weight + …
# mouse [9] = details: Developmental neurotoxicity study, other, Oral, Gavage/Intubation, dose end: 21 PND, group: cannot be grouped
# rat [10] = details: Developmental neurotoxicity study, sprague dawley, Oral, Gavage/Intubation, dose end: 70 PND, group: cannot be grouped
# mouse [11] = details: Subchronic oral toxicity in rodents, b6c3f1, Feed, dose end: 13 week, group: systemic
# rat [12] = details: Subchronic oral toxicity in rodents, fischer, Feed, dose end: 13 week, group: systemic, systemic / clinical chemistry / cholesterol / cholesterol + systemic / clinical chemistry / protein / protein + systemic / clinical …
# rat [13] = details: Developmental neurotoxicity study; sprague dawley; Oral; Gavage/Intubation; dose end: 112 PND; group: cannot be grouped; systemic / organ weight / brain / absolute
# rat [14] = details: Subchronic oral toxicity in rodents, fischer, Feed, dose end: 13 week, group: systemic; remark: listed apart in the source
# [15] = group: cholinesterase, cholinesterase / cholinesterase / cholinesterase / brain cholinesterase (che) + cholinesterase / cholinesterase / cholinesterase / …
# [16] = group: systemic, systemic / pathology microscopic / adrenal gland / pheochromocytoma benign + systemic / in life observation / clinical signs / aggressive …
# [17] = group: cholinesterase, cholinesterase / cholinesterase / cholinesterase / brain cholinesterase (che)
# [18] = group: systemic, systemic / hematology / erythrocyte (rbc) count differential / erythrocyte (rbc) + systemic / hematology / hematocrit (hct) / hematocrit (…
# [19] = group: developmental, developmental / developmental malformation / bone / ossification sites
# [20] = group: maternal, systemic / in life observation / body weight / body weight + systemic / in life observation / body weight / body weight gain + systemic / in…
# [21] = systemic / in life observation / body weight / body weight + systemic / in life observation / body weight / body weight gain
# [22] = systemic / in life observation / body weight / body weight + systemic / in life observation / body weight / body weight gain + systemic / in…
# [23] = systemic / in life observation / body weight / body weight
# [24] = systemic / in life observation / body weight / body weight + developmental / offspring survival late / [other] / [other] + systemic / in …
# [25] = systemic / in life observation / body weight / body weight + systemic / organ weight / liver / absolute
# [26] = developmental / offspring survival late / [other] / [other] + systemic / in life observation / clinical signs / ataxia + systemic / in life …
# [27] = systemic / in life observation / clinical signs / head tilt
# [28] = systemic / in life observation / body weight / body weight + systemic / in life observation / body weight / body weight gain + developmental…
# [29] = systemic / in life observation / body weight / body weight + systemic / in life observation / body weight / body weight gain + systemic / …
compound,measurement,setting,value
COP(=O)(NC(C)=O)SC (configuration not stated) [Acephate],LEL,rat [1],0.12 mg/kg/day
same,LOAEL,rat [1],0.12 mg/kg/day
same,NEL,rat [1],< 0.12 mg/kg/day
same,NOAEL,rat [1],< 0.12 mg/kg/day
same,LEL,rat [2]; [15],0.25 mg/kg/day
same,LOAEL,rat [2]; [15],35 mg/kg/day
same,NEL,rat [2]; [15],< 0.25 mg/kg/day
same,NOAEL,rat [2]; [15],2.5 mg/kg/day
same,LEL,rat [2]; [16],0.25 mg/kg/day
same,LOAEL,rat [2]; [16],> 35 mg/kg/day
same,NEL,rat [2]; [16],< 0.25 mg/kg/day
same,NOAEL,rat [2]; [16],≥ 35 mg/kg/day
same,LEL,dog; [17],0.27 mg/kg/day
same,LOAEL,dog; [17],0.27 mg/kg/day
same,NEL,dog; [17],< 0.27 mg/kg/day
same,NOAEL,dog; [17],< 0.27 mg/kg/day
same,LEL,dog; [18],20.2 mg/kg/day
same,LOAEL,dog; [18],20.2 mg/kg/day
same,NEL,dog; [18],3.11 mg/kg/day
same,NOAEL,dog; [18],3.11 mg/kg/day
same,LEL,rat [3]; [19],75 mg/kg/day
same,LOAEL,rat [3]; [19],75 mg/kg/day
same,NEL,rat [3]; [19],20 mg/kg/day
same,NOAEL,rat [3]; [19],20 mg/kg/day
same,LEL,rat [3]; [20],20 mg/kg/day
same,LOAEL,rat [3]; [20],20 mg/kg/day
same,NEL,rat [3]; [20],5 mg/kg/day
same,NOAEL,rat [3]; [20],5 mg/kg/day
"O=C1NC(=O)C(c2ccccc2)(c2ccccc2)N1 [5,5-Diphenylhydantoin]",LEL,rat [4]; [21],122 mg/kg/day
same,LOAEL,rat [4]; [21],122 mg/kg/day
same,NEL,rat [4]; [22],60.7 mg/kg/day
same,NOAEL,rat [4]; [22],60.7 mg/kg/day
same,LEL,mouse [5],20.5 mg/kg/day
same,LOAEL,mouse [5],20.5 mg/kg/day
same,NEL,mouse [5],< 20.5 mg/kg/day
same,NOAEL,mouse [5],< 20.5 mg/kg/day
same,LEL,rat [6]; [23],100 mg/kg/day
same,NEL,rat [6]; [23],< 100 mg/kg/day
same,LOAEL,rat [6]; [24],> 200 mg/kg/day
same,NOAEL,rat [6]; [24],≥ 200 mg/kg/day
same,NEL,rat [7]; [23],12.5 mg/kg/day
same,LEL,rat [7]; [25],25 mg/kg/day
same,LOAEL,rat [7]; [25],> 25 mg/kg/day
same,NOAEL,rat [7]; [25],≥ 25 mg/kg/day
same,LEL,rat [8],200 mg/kg/day
same,LOAEL,rat [8],> 200 mg/kg/day
same,NEL,rat [8],< 200 mg/kg/day
same,NOAEL,rat [8],≥ 200 mg/kg/day
same,LOAEL,mouse [9]; [26],> 35 mg/kg/day
same,NOAEL,mouse [9]; [26],≥ 35 mg/kg/day
same,LEL,mouse [9]; [27],10 mg/kg/day
same,NEL,mouse [9]; [27],< 10 mg/kg/day
same,NEL,rat [10]; [21],150 mg/kg/day
same,LEL,rat [10]; [28],200 mg/kg/day
same,LOAEL,rat [10]; [28],> 200 mg/kg/day
same,NOAEL,rat [10]; [28],≥ 200 mg/kg/day
same,LEL,mouse [11]; [21],11.2 mg/kg/day
same,NEL,mouse [11]; [21],< 11.2 mg/kg/day
same,LOAEL,mouse [11]; [29],90 mg/kg/day
same,NOAEL,mouse [11]; systemic / pathology microscopic / liver / hypertrophy + systemic / in life observation / mortality / mortality,45 mg/kg/day
same,LEL,rat [12],50 mg/kg/day
same,LOAEL,rat [12],> 100 mg/kg/day
same,NEL,rat [12],25 mg/kg/day
same,NOAEL,rat [12],≥ 100 mg/kg/day
same,LEL,rat [13],100 mg/kg/day
same,LOAEL,rat [13],> 100 mg/kg/day
same,NEL,rat [13],50 mg/kg/day
same,NOAEL,rat [13],≥ 100 mg/kg/day
same,LEL,rat [14]; [21],122 mg/kg/day
same,LOAEL,rat [14]; [29],234 mg/kg/day
same,NEL,rat [14]; [29],60.7 mg/kg/day
same,NOAEL,rat [14]; [29],122 mg/kg/day
